Data: patent EP1093379B1, “USE OF INHIBITORS OF PROTEIN KINASE C EPSILON TO TREAT PAIN” (The Regents of the University of California, priority 1998, dated 2007)

What was measured:
[1] = test system: PGE2-induced hyperalgesia; assay: PGE2-induced mechanical hyperalgesia, paw-withdrawal threshold; assay type: in vivo, rat; conditions: same dose as for epinephrine: BIM 1 µg, WIPTIDE 100 ng
Description: The roles of PKC, protein kinase A ("PKA") and the µ-opioid receptor in mediating epinephrine-induced hyperalgesia were assessed by measuring the effects of: Rp-adenosine 3', 5'-cyclic monophosphate ("Rp-cAMPs") and WIPTIDE, both inhibitors of PKA; SQ22536, an inhibitor of adenylyl cyclase, an enzyme activated by PKA; bisindolymaleimide ("BIM"), a nonselective inhibitor of PKC isozymes; and [D-Ala^2,N-Me-Phe^4,Gly^5-ol]-enkephalin ("DAMGO"), p-opioid receptor agonist. The dose for each inhibitor was 1µg, except for WIPTIDE, which was administered in a 100ng dose. DAMGO was co-injected with epinephrine whereas the other inhibitors were applied 15 minutes prior to epinephrine injection. […] TABLE 1: Percentage decrease in nociceptive threshold in response to epinephrine, PGE2 or isoproterenol (each 100 ng) and effects of DAMGO, SQ22536, BIM, Rp-cAMPs (all 1 µg) or WIPTIDE (0.1 µg). A large numeric value means more hyperalgesia.
For mechanical nociceptive testing, the nociceptive flexion reflex was quantified using an Ugo Basile analgesymeter that applies a constantly increasing force measured in grams (Stoelting, Chicago, IL; K. O. Aley, J. D. Levine, J. Neurosci. 17, 8018-23 (1997)). The mean basal mechanical threshold for rats used in these experiments was 105.3+/-2.8 grams. The effects of hyperalgesia-inducing agents epinephrine (100ng) and PGE2 (100ng) on mechanical nociceptive thresholds were determined by measuring paw withdrawal frequencies at 15, 20, and 25 minutes after administration of the hyperalgesic agent and then calculating the mean of these three readings.

[2] = test system: diabetes-induced hyperalgesia; assay: Streptozotocin diabetes model, diabetes-induced hyperalgesia to mechanical stimuli; assay type: in vivo, Sprague-Dawley rats; conditions: four weeks after streptozotocin 70 mg/kg; intradermal sterile water then 1 µg
Description: Persons with uncontrolled or poorly controlled diabetes frequently experience hyperalgesia. The role of PKCε in diabetic neuropathy was examined in a model of diabetes in which male Sprague-Dawley rats receive subcutaneous injection of streptozotocin (70 mg/kg), a pancreatic β-cell toxin. These rats display hyperglycemia and glucosuria within 24 hours after the injection and show decreased nociceptive thresholds in response to mechanical stimuli administered by Ugo Basile analgesymeter in the hind paw after one week (Ahlgren, S.C. et al, J. Neurophysiology, 68, 2077-2085 (1992); Ahlgren, S.C. and Levine, J.D., Neuroscience 52, 1049-1055 (1993)). Four weeks after the streptozotocin injection, each rat received no treatment (n=8) or an intradermal injection of sterile water followed by a intradermal injections of (1) 1 µg bisindolymaleimide, a protein kinase C inhibitor (n=4; labeled "BIM" on Figure 12B), (2) 1 µg εV1-2, a PKCε inhibitory peptide (n=8; labeled "PKCεI" on Figure 12B), or (3) 1 µg S-VεV1-2, a scrambled version of the εV1-2 peptide (n=4; labeled "PCKε1 SCR" on Figure 12B) and were subsequently exposed to mechanical stimuli.

[3] = test system: TTX-RINa; assay type: cell-based, rat
[4] = test system: isoproterenol-induced hyperalgesia; assay: Isoproterenol-induced mechanical hyperalgesia, paw-withdrawal threshold; assay type: in vivo, rat; conditions: intradermal; BIM 1 µg, WIPTIDE 100 ng; propranolol dose not given
Description: To examine the role of β-AR in epinephrine-induced hyperalgesia, propranolol, a β-AR antagonist, and isoproterenol, a selective β-AR agonist, were administered by intradermal injection.
The roles of PKC, protein kinase A ("PKA") and the µ-opioid receptor in mediating epinephrine-induced hyperalgesia were assessed by measuring the effects of: Rp-adenosine 3', 5'-cyclic monophosphate ("Rp-cAMPs") and WIPTIDE, both inhibitors of PKA; SQ22536, an inhibitor of adenylyl cyclase, an enzyme activated by PKA; bisindolymaleimide ("BIM"), a nonselective inhibitor of PKC isozymes; and [D-Ala^2,N-Me-Phe^4,Gly^5-ol]-enkephalin ("DAMGO"), p-opioid receptor agonist. The dose for each inhibitor was 1µg, except for WIPTIDE, which was administered in a 100ng dose. […] A large numeric value means more hyperalgesia.

[5] = test system: prolonged PGE2-induced hyperalgesia; assay: Chronic inflammatory pain model: prolonged hyperalgesia in carrageenan-sensitized rats (Randall-Selitto paw-withdrawal test); assay type: in vivo
From the text: In order to investigate the role, if any, of PKCε in chronic inflammatory pain, the following model system for chronic inflammatory pain was developed. Rats received intradermal hind paw injections of carrageenan, an inflammatory agent. […] This was considered an acute response to the carrageenan-induced inflammation. Although administration of Prostaglandin E2 ("PGE2"), 5-hydroxytryptamine ("5-HT," serotonin) or CGS-21680 (an adenosine A2-selective receptor agonist) normally causes untreated rats (that is, rats that have not received carrageenan injections) to experience hyperalgesia lasting up to 6 hours, the hyperalgesia experienced by carrageenan-sensitized rats following administration of any one of these substances lasted up to 24 hours.
The prolonged PGE2-induced hyperalgesia normally seen in carrageenan-sensitized rats was inhibited by administration of BIM or εV1-2.
To examine whether protein kinase C modulates the processes by which a brief inflammatory event causes prolonged hyperalgesia many days later, rats received carrageenan and 1µg BIM injections at the same time. Hyperalgesia was measured 72 hours later, when the rats were treated PGE2. […] Therefore, administration of an inhibitor of PKC either at approximately the same time as the inflammatory agent giving rise to chronic, prolonged hyperalgesia or at about the same time as the hyperalgesia-inducing stimulus can lessen such chronic hyperalgesia.

[6] = 1µM epinephrine with 100µM BIM v. epinephrine alone
[7] = 1µg at the same time as carrageenan

## CN(C)CCCn1cc(C2=C(c3c[nH]c4ccccc34)C(=O)NC2=O)c2ccccc21 [BIM, bisindolymaleimide I]
[1]
  effect on PGE2-induced hyperalgesia: had no effect
[2]
  effect on diabetes-induced decrease in nociceptive threshold: markedly reduced
[3]; [6]
  mean peak current increase: 32%
  number of neurons responsive to epinephrine: 5 out of 11
[3]; 1µM epinephrine, 2µM propranolol, 5µM phentolamine, 100µM Rp-cAMPs, 100µM BIM
  effect on epinephrine-induced potentiation of TTX-RINa: significantly decreased
[4]
  effect on isoproterenol-induced hyperalgesia: significantly attenuated
[5]; [7]
  effect on acute hyperalgesia normally induced by carrageenan exposure: attenuated
  effect on prolonged hyperalgesia on PGE2 72 or more hours after carrageenan exposure: attenuated
[5]; 1µg several days after the carrageenan injection, then PGE2
  effect on prolonged PGE2-induced hyperalgesia in carrageenan-sensitized rats: inhibited
